Patent US11504383B2, “Crystalline forms of a Ryanodine receptor modulator and uses thereof” (ARMGO Pharma, Inc., priority 2021, dated 2022)
Entries after “also recorded” stand apart in the source; their conditions may differ.

How the values were obtained:
Format in all cases: physicochemical
[1] = Competitive slurry experiments mixing Form 1 and Form 2 in various solvents
Method: Competitive slurry experiments were performed at 15° C. (Table 5) or 40° C. (Table 6) by mixing Form 1 and Form 2 in various solvents in acetonitrile/water, acetone/water and methanol/water mixtures. […] (Table 5) or 40° C. (Table 6).

[2] = Storage stability of the polymorphs followed by XRD
Method: The top panel depicts the polymorph at initiation and the bottom three panels depict the polymorph after 24 months. FIG. 5 Panel A: initial control; FIG. 5 Panel B: sample stored for 2 years in open bottle in stability chambers at 25° C./60% relative humidity (RH); FIG. 5 Panel C: sample stored for 2 years in closed bottle in stability chambers at 40° C./75% RH; FIG. 5 Panel D: sample stored for 2 years in open bottle in stability chambers at 40° C./75% RH.
The top panel depicts the polymorph at initiation and the bottom panels depict the polymorph after 3, 6, 12 and 24 months.

[3] = Dynamic vapor sorption (hygroscopicity); details: DVS, 25° C., 0-90% relative humidity
Method: Dynamic vapor sorption (DVS) analysis was performed by measuring mass variation of the crystalline form of 4-[(7-methoxy-2,3-dihydro-1,4-benzothiazepin-4(5H)yl)methyl]benzoic acid hemifumarate as a function of relative humidity using a DVS intrinsic instrument. A 5 mg to 10 mg of a sample of a crystalline form of 4-[(7-methoxy-2,3-dihydro-1,4-benzothiazepin-4(5H)yl)methyl]benzoic acid, hemifumarate was placed into a sample pan of a DVS intrinsic instrument at 25° C. under controlled humidity. The mass variation was recorded as a function of relative humidity.
Measurement of DVS comprised: (a) equilibrating a sample of the crystalline form at 25° C. and 50% relative humidity in a temperature-controlled and humidity controlled chamber until mass variation is less than 0.002% per minute for 6 hours; (b) increasing the relative humidity from 50% to 90% at a rate of 10% per hour; (c) equilibrating the sample at 90% relative humidity until mass variation of less than 0.002% per minute for 6 hours is observed; (d) decreasing the relative humidity from 90% to 0% at a rate of 10% per hour; (e) equilibrating the sample at 0% relative humidity until mass variation of less than 0.002% per minute for 6 hours is observed; and (f) increasing the relative humidity from 0% to 50% at a rate of 10% per hour.

[4] = Thermogravimetric analysis (loss of mass before melting/degradation); details: 25° C. to 250° C. at about 10° C./minute
Method: Thermogravimetric analysis (TGA) was performed. A 10 to 20 mg of sample of a crystalline form of 4-[(7-methoxy-2,3-dihydro-1,4-benzothiazepin-4(5H)yl)methyl]benzoic acid hemifumarate was placed into an aluminum pan, with nitrogen purge. The sample was equilibrated at 25° C. in a temperature-controlled chamber. The sample was heated at a scan rate of about 10° C./minute to 250° C. under nitrogen purge. A TGA Q5000 thermogravimetric analysis instrument was used.

## COc1ccc2c(c1)CN(Cc1ccc(C(=O)O)cc1)CCS2.O=C(O)/C=C/C(=O)O [Form 1 and Form 2]
[1]; 15° C. for 10 days, Acetone
  XRD (form after competitive slurry): Form 2
[1]; 15° C. for 10 days, Acetone/water 30/70
  XRD (form after competitive slurry): Form 2
[1]; 15° C. for 10 days, Acetone/water 90/10
  XRD (form after competitive slurry): Form 2
[1]; 15° C. for 10 days, Acetone/water 96/4
  XRD (form after competitive slurry): Form 2
[1]; 15° C. for 10 days, Acetone/water 98/2
  XRD (form after competitive slurry): Form 2
[1]; 15° C. for 10 days, Acetonitrile
  XRD (form after competitive slurry): Acetonitrile solvate (Form 4)
[1]; 15° C. for 10 days, Acetonitrile/water 15/85
  XRD (form after competitive slurry): Acetonitrile solvate (Form 4)
[1]; 15° C. for 10 days, Acetonitrile/water 87/13
  XRD (form after competitive slurry): Acetonitrile solvate (Form 4)
[1]; 15° C. for 10 days, Acetonitrile/water 94/6
  XRD (form after competitive slurry): Acetonitrile solvate (Form 4)
[1]; 15° C. for 10 days, Acetonitrile/water 98/2
  XRD (form after competitive slurry): Acetonitrile solvate (Form 4)
[1]; 15° C. for 10 days, Methanol
  XRD (form after competitive slurry): Methanol solvate (Form 3)
[1]; 15° C. for 10 days, Methanol/water 20/80
  XRD (form after competitive slurry): Form 2 + Methanol solvate
[1]; 15° C. for 10 days, Methanol/water 50/50
  XRD (form after competitive slurry): Methanol solvate (Form 3)
[1]; 15° C. for 10 days, Methanol/water 70/30
  XRD (form after competitive slurry): Methanol solvate (Form 3)
[1]; 15° C. for 10 days, Methanol/water 95/5
  XRD (form after competitive slurry): Methanol solvate (Form 3)
[1]; 15° C. for 10 days, Water
  XRD (form after competitive slurry): Form 2
[1]; 40° C. for 5 days, Acetone
  XRD (form after competitive slurry): Form 2
[1]; 40° C. for 5 days, Acetone/water 30/70
  XRD (form after competitive slurry): Form 2
[1]; 40° C. for 5 days, Acetone/water 90/10
  XRD (form after competitive slurry): Form 2
[1]; 40° C. for 5 days, Acetone/water 96/4
  XRD (form after competitive slurry): Form 2
[1]; 40° C. for 5 days, Acetone/water 98/2
  XRD (form after competitive slurry): Form 2
[1]; 40° C. for 5 days, Acetonitrile
  XRD (form after competitive slurry): Acetonitrile solvate (Form 4)
[1]; 40° C. for 5 days, Acetonitrile/water 15/85
  XRD (form after competitive slurry): Acetonitrile solvate (Form 4)
[1]; 40° C. for 5 days, Acetonitrile/water 87/13
  XRD (form after competitive slurry): Acetonitrile solvate (Form 4)
[1]; 40° C. for 5 days, Acetonitrile/water 94/6
  XRD (form after competitive slurry): Acetonitrile solvate (Form 4)
[1]; 40° C. for 5 days, Acetonitrile/water 98/2
  XRD (form after competitive slurry): Acetonitrile solvate (Form 4)
[1]; 40° C. for 5 days, Methanol
  XRD (form after competitive slurry): Methanol solvate (Form 3)
[1]; 40° C. for 5 days, Methanol/water 20/80
  XRD (form after competitive slurry): Form 2 + Methanol solvate
[1]; 40° C. for 5 days, Methanol/water 50/50
  XRD (form after competitive slurry): Methanol solvate (Form 3)
[1]; 40° C. for 5 days, Methanol/water 70/30
  XRD (form after competitive slurry): Methanol solvate (Form 3)
[1]; 40° C. for 5 days, Methanol/water 95/5
  XRD (form after competitive slurry): Methanol solvate (Form 3)
[1]; 40° C. for 5 days, Water
  XRD (form after competitive slurry): Form 2
[1]; acetone/water mixtures, all tested conditions
  Form obtained from slurry: converted into Form 2
[1]; acetonitrile/water mixtures, all tested ratios, 15° C. or 40° C.
  Form obtained from slurry: converted into the acetonitrile solvate (Form 4)
[1]; methanol/water (20/80 v/v)
  Form obtained from slurry: a mixture of Form 2 and methanol solvate
[1]; methanol/water mixtures, all tested ratios except 20/80 v/v, 15° C. or 40° C.
  Form obtained from slurry: converted into the methanol solvate (Form 3)

## COc1ccc2c(c1)CN(Cc1ccc(C(=O)O)cc1)CCS2.O=C(O)/C=C/C(=O)O [Form 1, 4-[(7-methoxy-2,3-dihydro-1,4-benzothiazepin-4(5H)yl)methyl]benzoic acid, hemifumarate]
[2]; XRD, FIG. 5
  Storage time without any detectable conversion into Form 2: at least 24 months
[2]; after 24 months, open bottle 25° C./60% RH, closed bottle 40° C./75% RH, open bottle 40° C./75% RH
  Stability of the polymorph on storage (XRD, FIG. 5): stable
[3]
  Hygroscopicity: slightly hygroscopic; also recorded: non-hygroscopic
[4]
  Loss of mass before melting degradation (TGA): about 1%
